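Growth conditions: 96-well plates. Treatment: test compound, 48 hours, 5 concentrations. Analysis: linear interpolation between bracketing concentrations; unreached endpoints set to highest concentration. The concentration for 50% growth inhibition is given as GI50. The concentration for full growth arrest is given as TGI.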
Columns and labels:
Experiment in all cases: NCI anticancer screen, dose series, 48 h
[1] = test system: EKVX NSCLC
[2] = test system: HCC-2998 colon
[3] = test system: HOP-62 NSCLC
[4] = test system: HT29 colon
[5] = test system: IGROV1 ovarian
[6] = test system: MOLT-4 leukemia
[7] = test system: NCI-H23 lung
[8] = test system: OVCAR-3 ovarian
[9] = test system: OVCAR-5 ovarian
[10] = test system: RPMI-8226 leukemia
[11] = test system: SF-295 CNS
[12] = test system: SW-620 colon
[13] = test system: UACC-257 melanoma

| Compound | TGI [1] | TGI [2] | TGI [3] | TGI [4] | TGI [5] | TGI [6] | TGI [7] | TGI [8] | TGI [9] | TGI [10] | TGI [11] | TGI [12] | TGI [13] | GI50 [2] | GI50 [6] | GI50 [8] | GI50 [9] | GI50 [10] | GI50 [11] | GI50 [13] |
| --- | --- | --- | --- | --- | --- | --- | --- | --- | --- | --- | --- | --- | --- | --- | --- | --- | --- | --- | --- | --- |
| CO[C@](C(=O)OC[C@H]1[C@@H](COC(C)=O)[C@@H]2O[C@H]1c1cc3c(cc12)OCO3)(c1ccccc1)C(F)(F)F | 98.8 µM | 71.9 µM | 73.6 µM | > 100 µM | 81.1 µM | > 100 µM | > 100 µM | > 100 µM | > 100 µM | 38.7 µM | 58.6 µM | > 100 µM | > 100 µM |  |  |  |  |  |  |  |
| COc1cc(/C=C2\CN(S(=O)(=O)c3ccc(C)cc3)C/C(=C\c3cc(CN4CCCC4)c(O)c(OC)c3)C2=O)cc(CN2CCCC2)c1O |  | 3.08 µM |  |  |  | 2.92 µM |  | 2.35 µM | 3.84 µM | 3.17 µM | 5.07 µM |  | 3.17 µM | 1.64 µM | 0.379 µM | 1.07 µM | 2.27 µM | 1.14 µM | 2.23 µM | 1.53 µM |
| Oc1ccc(NCn2c(=S)sc3ccccc32)cc1 | > 100 µM | > 100 µM | > 100 µM | > 100 µM | > 100 µM | > 100 µM | > 100 µM | > 100 µM | > 100 µM | > 100 µM | > 100 µM | > 100 µM | > 100 µM |  |  |  |  |  |  |  |
| CON(C)C(=O)C(Cc1ccccc1)NC(=O)OCc1ccccc1 (configuration not stated) | > 100 µM | > 100 µM | > 100 µM | > 100 µM | > 100 µM | > 100 µM | > 100 µM | > 100 µM | > 100 µM | > 100 µM | > 100 µM | > 100 µM | > 100 µM |  |  |  |  |  |  |  |
| CCOC(=O)c1csc(NC(=O)CN2CCCC2)n1 | > 100 µM | > 100 µM | > 100 µM | > 100 µM | > 100 µM | > 100 µM | > 100 µM | > 100 µM | > 100 µM | > 100 µM | > 100 µM | > 100 µM | > 100 µM |  |  |  |  |  |  |  |
| O=C(CC1Sc2ccccc2NC1=O)Nc1ccccc1[N+](=O)[O-] (configuration not stated) | > 100 µM | > 100 µM | > 100 µM | > 100 µM | > 100 µM | > 100 µM | > 100 µM | > 100 µM | > 100 µM | > 100 µM | > 100 µM | > 100 µM | > 100 µM |  |  |  |  |  |  |  |
| CC1NC(=O)C(C)C(c2ccccc2)N(N=O)C1c1ccccc1 (configuration not stated) | > 100 µM | > 100 µM | > 100 µM | > 100 µM | > 100 µM | > 100 µM | > 100 µM | > 100 µM | > 100 µM | > 100 µM | > 100 µM | > 100 µM | > 100 µM |  |  |  |  |  |  |  |
